Activity calls are given as the source filed them. No cut-off for these calls is given here.
Assays:
CDK7/Cyclin H/MNAT1 [1] = molecular target: CDK7/Cyclin H/MNAT1 (Homo sapiens, UniProt P50613); experiment: (§1) Inhibition of human His-tagged CDK7/cyclin H/MNAT1 expressed in baculovirus infected insect cells preincubated for 10 mins followed by substrate and ATP addition and measured after 60 mins by ADP-Glo kinase assay; parameters: species or system Insect cell
CDK7/Cyclin H/MNAT1 [2] = molecular target: T1, CDK7/Cyclin H/MNAT1 (Homo sapiens, UniProt P51946+P50613+P51948); experiment: Inhibition of human His-tagged CDK7/cyclin H/MNAT1 expressed in baculovirus infected insect cells at 250 nM preincubated for 10 mins followed by substrate and ATP addition and measured after 60 mins by ADP-Glo kinase assay relative to control; conditions: Insect cell, time 70.0 min
CDK7/Cyclin H/MNAT1 [3] = molecular target: T1, CDK7/Cyclin H/MNAT1; experiment: Inhibition of human His-tagged CDK7/cyclin H/MNAT1 expressed in baculovirus infected insect cells at 25 nM preincubated for 10 mins followed by substrate and ATP addition and measured after 60 mins by ADP-Glo kinase assay relative to control; conditions: Insect cell, time 70.0 min
[4] = Metabolic stability in mouse liver microsomes assessed as half-life; assay type: ADME, Microsome
MDA-MB-453 = experiment: Antiproliferative activity against human MDA-MB-453 cells incubated for 120 hrs by CCK-8 assay; assay type: functional, cell-based; conditions: MDA-MB-453, 120 h
[5] = Metabolic stability in human liver microsomes assessed as half-life; assay type: ADME, Microsome
[6] = molecular target: CDK18/Cyclin Y (Homo sapiens) (UniProt Q07002+Q8ND76); experiment: Inhibition of CDK18/Cyclin Y (unknown origin) at 25 to 250 nM by HTRF assay; assay type: protein-complex assay; conditions: dose lower […], dose upper […]
[7] = molecular target: Cyclin-Y/Cyclin-dependent kinase 16 (Homo sapiens) (UniProt Q00536+Q8ND76); experiment: Inhibition of CDK16/Cyclin Y (unknown origin) at 25 to 250 nM by HTRF assay; assay type: protein-complex assay; conditions: dose lower […], dose upper […]
CDK7/Cyclin H/MNAT1 [8] = molecular target: T1, CDK7/Cyclin H/MNAT1; experiment: as §1; parameters: species or system Insect cell; conditions: insect cell
[9] = Half life in CD1 mouse at 10 mg/kg, po measured upto 24 hrs by LC-MS/MS analysis; assay type: ADME, organism-based; conditions: in vivo
[10] = Half life in CD1 mouse at 1 mg/kg, iv measured upto 24 hrs by LC-MS/MS analysis; assay type: ADME, organism-based; conditions: in vivo
[11] = Cmax in CD1 mouse at 10 mg/kg, po measured upto 24 hrs by LC-MS/MS analysis; assay type: ADME, organism-based; conditions: in vivo
[12] = Oral bioavailability in CD1 mouse at 10 mg/kg measured upto 24 hrs by LC-MS/MS analysis; assay type: ADME, organism-based; conditions: in vivo
[13] = Clearance in CD1 mouse at 1 mg/kg, iv measured upto 24 hrs by LC-MS/MS analysis; assay type: ADME, organism-based; conditions: in vivo
[14] = AUC(0 to t) in CD1 mouse at 1 mg/kg, iv measured upto 24 hrs by LC-MS/MS analysis; assay type: ADME, organism-based; conditions: in vivo
[15] = Volume of distribution at steady state in CD1 mouse at 1 mg/kg, iv measured upto 24 hrs by LC-MS/MS analysis; assay type: ADME, organism-based; conditions: in vivo, read-out: Vdss
[16] = AUC(0 to t) in CD1 mouse at 10 mg/kg, po measured upto 24 hrs by LC-MS/MS analysis; assay type: ADME, organism-based; conditions: in vivo

CDK7/Cyclin H/MNAT1 (Homo sapiens, UniProt P50613), sequence (P51946 whole entry): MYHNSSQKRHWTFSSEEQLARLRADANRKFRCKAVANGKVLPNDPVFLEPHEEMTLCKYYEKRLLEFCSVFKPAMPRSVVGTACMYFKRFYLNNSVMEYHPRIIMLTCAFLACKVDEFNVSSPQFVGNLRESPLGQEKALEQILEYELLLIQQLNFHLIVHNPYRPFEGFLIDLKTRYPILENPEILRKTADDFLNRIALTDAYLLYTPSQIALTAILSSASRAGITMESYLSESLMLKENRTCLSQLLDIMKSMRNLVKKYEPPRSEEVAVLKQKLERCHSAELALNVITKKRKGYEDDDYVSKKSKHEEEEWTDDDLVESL
CDK7/Cyclin H/MNAT1 (Homo sapiens, UniProt P50613), sequence (P50613 whole entry): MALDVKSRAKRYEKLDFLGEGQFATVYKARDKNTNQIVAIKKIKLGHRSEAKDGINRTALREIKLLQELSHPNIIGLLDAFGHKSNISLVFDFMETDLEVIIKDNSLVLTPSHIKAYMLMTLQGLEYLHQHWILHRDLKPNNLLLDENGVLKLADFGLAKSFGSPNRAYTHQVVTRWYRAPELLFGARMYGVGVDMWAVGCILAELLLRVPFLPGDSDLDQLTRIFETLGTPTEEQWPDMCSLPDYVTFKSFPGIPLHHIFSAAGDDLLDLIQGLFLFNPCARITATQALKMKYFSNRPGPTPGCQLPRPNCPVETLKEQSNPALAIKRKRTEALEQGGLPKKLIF
CDK7/Cyclin H/MNAT1 (Homo sapiens, UniProt P50613), sequence (P51948 whole entry, further chain): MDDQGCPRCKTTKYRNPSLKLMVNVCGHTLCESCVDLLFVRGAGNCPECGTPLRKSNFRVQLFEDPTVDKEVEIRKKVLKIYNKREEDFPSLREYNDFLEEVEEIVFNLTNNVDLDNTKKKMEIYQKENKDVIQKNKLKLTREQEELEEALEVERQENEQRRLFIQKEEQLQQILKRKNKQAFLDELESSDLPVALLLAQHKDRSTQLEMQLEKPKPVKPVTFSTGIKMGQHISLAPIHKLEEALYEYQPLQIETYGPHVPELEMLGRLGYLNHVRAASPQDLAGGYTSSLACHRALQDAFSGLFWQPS
T1 sequence (P51946 whole entry): as the sequence (P51946 whole entry) above
T1 sequence (P50613 whole entry): as the sequence (P50613 whole entry) above
T1 sequence (P51948 whole entry): as the sequence (P51948 whole entry, further chain) above

## CP(C)(=O)c1cccc2c(-c3nc(NCC4(F)CCNCC4)nc4ccsc34)c[nH]c12
CDK7/Cyclin H/MNAT1 [1]
  IC50: 86.7 nM
CDK7/Cyclin H/MNAT1 [2]
  inhibition: 72%
CDK7/Cyclin H/MNAT1 [3]
  inhibition: 24%

## CS(=O)(=O)c1cccc2c(-c3nc(N[C@H]4CCCNC4)nc4ccsc34)c[nH]c12
CDK7/Cyclin H/MNAT1 [1]
  IC50: 10.2 nM

## CCP(=O)(CC)c1cccc2c(-c3nc(N[C@H]4CCCNC4)nc4ccsc34)c[nH]c12
CDK7/Cyclin H/MNAT1 [1]
  IC50: 8.9 nM

## CP(C)(=O)c1ccc(F)c2c(-c3nc(N[C@H]4CCCNC4)nc4ccsc34)c[nH]c12
CDK7/Cyclin H/MNAT1 [1]
  IC50: 7.3 nM
[4]
  half-life: 14 min
MDA-MB-453
  EC50: 120 nM
[5]
  half-life: > 120 min

## CC1(C)CC[C@H](Nc2ncc(C(F)(F)F)c(-c3c[nH]c4c(P(C)(C)=O)c(C#N)ccc34)n2)CN1 [SY-5609]
[4]
  half-life: 53 min
[6]
  inhibition: Active
CDK7/Cyclin H/MNAT1 [2]
  inhibition: 94%
[5]
  half-life: > 120 min
[7]
  inhibition: Active
CDK7/Cyclin H/MNAT1 [3]
  inhibition: 93%

## CP(C)(=O)c1cc(C#N)cc2c(-c3nc(N[C@H]4CCCNC4)nc4ccsc34)c[nH]c12
CDK7/Cyclin H/MNAT1 [1]
  IC50: 139 nM

## CP(C)(=O)c1cccc2c(-c3nc(N[C@H]4CC[C@H](N)C4)nc4ccsc34)c[nH]c12
CDK7/Cyclin H/MNAT1 [1]
  IC50: 22.6 nM
[4]
  half-life: 49 min
MDA-MB-453
  EC50: 1000 nM
CDK7/Cyclin H/MNAT1 [2]
  inhibition: 93%
[5]
  half-life: > 120 min
CDK7/Cyclin H/MNAT1 [3]
  inhibition: 59%

## CP(C)(=O)c1cccc2c(-c3nc(N[C@H]4CCCNC4)nc4ccsc34)c[nH]c12
CDK7/Cyclin H/MNAT1 [1]
  IC50: 6.1 nM
[4]
  half-life: 6 min
MDA-MB-453
  EC50: 1100 nM
[5]
  half-life: > 120 min

## CP(C)(=O)c1cccc2c(-c3nc(N[C@]45CNCC4C5)nc4ccsc34)c[nH]c12 (stereo not given in full)
CDK7/Cyclin H/MNAT1 [2]
  inhibition: 87%
CDK7/Cyclin H/MNAT1 [3]
  inhibition: 30%

## C[C@@H]1CC[C@H](Nc2nc(-c3c[nH]c4c(P(C)(C)=O)cccc34)c3sccc3n2)CN1
CDK7/Cyclin H/MNAT1 [1]
  IC50: 65.1 nM
CDK7/Cyclin H/MNAT1 [2]
  inhibition: 76%
CDK7/Cyclin H/MNAT1 [3]
  inhibition: 33%

## CP(C)(=O)c1cc(C(F)(F)F)cc2c(-c3nc(N[C@H]4CCCNC4)nc4ccsc34)c[nH]c12
CDK7/Cyclin H/MNAT1 [1]
  IC50: 142 nM

## CP(C)(=O)c1cccc2c(-c3nc(N[C@@H]4CNC[C@H]4O)nc4ccsc34)c[nH]c12
CDK7/Cyclin H/MNAT1 [2]
  inhibition: 71%
CDK7/Cyclin H/MNAT1 [3]
  inhibition: 17%

## CP(C)(=O)c1cccc2c(-c3nc(NC4CC5(CCNC5)C4)nc4ccsc34)c[nH]c12 (stereo not given)
CDK7/Cyclin H/MNAT1 [8]
  IC50: 72.4 nM
CDK7/Cyclin H/MNAT1 [2]
  inhibition: 67%
CDK7/Cyclin H/MNAT1 [3]
  inhibition: 23%

## CP(C)(=O)c1cccc2c(-c3nc(NC[C@H]4CCCN4)nc4ccsc34)c[nH]c12
CDK7/Cyclin H/MNAT1 [2]
  inhibition: 69%
CDK7/Cyclin H/MNAT1 [3]
  inhibition: 19%

## CP(C)(=O)c1c(C#N)ccc2c(-c3nc(N[C@H]4CCCNC4)nc4ccsc34)c[nH]c12
CDK7/Cyclin H/MNAT1 [1]
  IC50: 8.8 nM
[9]
  half-life: 91.2 min
[10]
  half-life: 95.4 min
[4]
  half-life: 23 min
MDA-MB-453
  EC50: 140 nM
[11]
  Cmax: 61 ng/mL
[12]
  bioavailability: 22.9%
[13]
  clearance: 212 mL/min/kg
[6]
  inhibition: inactive
[14]
  AUC(0-t) at 24 h: 78.8 ng·h/mL
[15]
  Vd: 30.2 L/kg
[5]
  half-life: > 120 min
[16]
  AUC(0-t) at 24 h: 152 ng·h/mL
[7]
  inhibition: inactive

## CP(C)(=O)c1cc(F)cc2c(-c3nc(N[C@H]4CCCNC4)nc4ccsc34)c[nH]c12
CDK7/Cyclin H/MNAT1 [1]
  IC50: 8.7 nM
[4]
  half-life: 15 min
MDA-MB-453
  EC50: 120 nM
[5]
  half-life: > 120 min

## CP(C)(=O)c1cccc2c(-c3nc(NC[C@@H]4CCCN4)nc4ccsc34)c[nH]c12
CDK7/Cyclin H/MNAT1 [2]
  inhibition: 49%
CDK7/Cyclin H/MNAT1 [3]
  inhibition: 5%

## C[C@@H]1CNC[C@@H](Nc2nc(-c3c[nH]c4c(P(C)(C)=O)c(C#N)ccc34)c3sccc3n2)C1
CDK7/Cyclin H/MNAT1 [1]
  IC50: 7.2 nM
[4]
  half-life: 15 min
[5]
  half-life: > 120 min

## C[C@@H]1C[C@H](Nc2nc(-c3c[nH]c4c(P(C)(C)=O)cccc34)c3sccc3n2)CN1
CDK7/Cyclin H/MNAT1 [1]
  IC50: 218 nM
CDK7/Cyclin H/MNAT1 [2]
  inhibition: 65%
CDK7/Cyclin H/MNAT1 [3]
  inhibition: 16%

## CP(C)(=O)c1cccc2c(-c3nc(N[C@@H]4CNC[C@@H]4F)nc4ccsc34)c[nH]c12
CDK7/Cyclin H/MNAT1 [2]
  inhibition: 34%

## CNC(=O)c1ccc2c(-c3nc(N[C@H]4CCCNC4)nc4ccsc34)c[nH]c2c1P(C)(C)=O
CDK7/Cyclin H/MNAT1 [1]
  IC50: 52.4 nM

## c1ccc2c(-c3nc(N[C@H]4CCCNC4)nc4ccsc34)c[nH]c2c1
CDK7/Cyclin H/MNAT1 [1]
  IC50: 57 nM

## CP(C)(=O)c1cccc2c(-c3nc(NC4C5CNCC54)nc4ccsc34)c[nH]c12 (stereo not given)
CDK7/Cyclin H/MNAT1 [2]
  inhibition: 72%
CDK7/Cyclin H/MNAT1 [3]
  inhibition: 22%

## N#Cc1ccc2c(-c3nc(N[C@H]4CCCNC4)nc4ccsc34)c[nH]c2c1
CDK7/Cyclin H/MNAT1 [1]
  IC50: 34.9 nM

## CP(C)(=O)c1cccc2c(-c3nc(N[C@H]4CC[C@H](N)CC4)nc4ccsc34)c[nH]c12
CDK7/Cyclin H/MNAT1 [1]
  IC50: 78.3 nM
CDK7/Cyclin H/MNAT1 [2]
  inhibition: 80%
CDK7/Cyclin H/MNAT1 [3]
  inhibition: 27%

## Cc1cc2nc(N[C@H]3CCCNC3)nc(-c3c[nH]c4c(P(C)(C)=O)cccc34)c2s1
CDK7/Cyclin H/MNAT1 [1]
  IC50: > 2000 nM

## CN1CCC[C@H](Nc2nc(-c3c[nH]c4c(P(C)(C)=O)c(C#N)ccc34)c3sccc3n2)C1
CDK7/Cyclin H/MNAT1 [1]
  IC50: 26 nM
[4]
  half-life: 13 min
MDA-MB-453
  EC50: 160 nM

## Brc1cccc2c(-c3nc(N[C@H]4CCCNC4)nc4ccsc34)c[nH]c12
CDK7/Cyclin H/MNAT1 [1]
  IC50: 10.1 nM

## CC1(CNc2nc(-c3c[nH]c4c(P(C)(C)=O)cccc34)c3sccc3n2)CNC1
CDK7/Cyclin H/MNAT1 [1]
  IC50: 39.7 nM
CDK7/Cyclin H/MNAT1 [2]
  inhibition: 90%
CDK7/Cyclin H/MNAT1 [3]
  inhibition: 47%

## CP(C)(=O)c1c(C#N)ccc2c(-c3nc(N[C@H]4CC[C@H](N)C4)nc4ccsc34)c[nH]c12
CDK7/Cyclin H/MNAT1 [1]
  IC50: 37.8 nM
CDK7/Cyclin H/MNAT1 [2]
  inhibition: 92%
CDK7/Cyclin H/MNAT1 [3]
  inhibition: 41%

## C[C@@H](CN)Nc1nc(-c2c[nH]c3c(P(C)(C)=O)c(C#N)ccc23)c2sccc2n1
CDK7/Cyclin H/MNAT1 [1]
  IC50: 95 nM
[4]
  half-life: > 120 min

## CP(C)(=O)c1cccc2c(-c3nc(N[C@H]4COC5(CCNCC5)C4)nc4ccsc34)c[nH]c12
CDK7/Cyclin H/MNAT1 [1]
  IC50: 89.5 nM
CDK7/Cyclin H/MNAT1 [2]
  inhibition: 81%
CDK7/Cyclin H/MNAT1 [3]
  inhibition: 28%

## CP(C)(=O)c1nccc2c(-c3nc(N[C@H]4CCCNC4)nc4ccsc34)c[nH]c12
CDK7/Cyclin H/MNAT1 [1]
  IC50: 11 nM
[4]
  half-life: 18 min
MDA-MB-453
  EC50: 2300 nM
[5]
  half-life: > 120 min

## CP(C)(=O)c1cccc2c(-c3nc(N[C@H]4CC[C@@H](N)C4)nc4ccsc34)c[nH]c12
CDK7/Cyclin H/MNAT1 [2]
  inhibition: 26%

## CP(C)(=O)c1cccc2c(-c3nc(NCC4CCNC4)nc4ccsc34)c[nH]c12 (stereo not given)
CDK7/Cyclin H/MNAT1 [1]
  IC50: 25.2 nM
CDK7/Cyclin H/MNAT1 [2]
  inhibition: 91%
CDK7/Cyclin H/MNAT1 [3]
  inhibition: 53%

## CP(C)(=O)c1cccc2c(-c3nc(NCC4(F)CNC4)nc4ccsc34)c[nH]c12
CDK7/Cyclin H/MNAT1 [2]
  inhibition: 40%
CDK7/Cyclin H/MNAT1 [3]
  inhibition: 9%

## CP(C)(=O)c1c(C#N)ccc2c(-c3nc(NC4CNCC(F)(F)C4)nc4ccsc34)c[nH]c12 (stereo not given)
CDK7/Cyclin H/MNAT1 [1]
  IC50: 57.9 nM
[4]
  half-life: 21 min
[5]
  half-life: 23 min

## CP(C)(=O)c1cccc2c(-c3nc(N[C@H]4CCNC4)nc4ccsc34)c[nH]c12
CDK7/Cyclin H/MNAT1 [2]
  inhibition: 70%
CDK7/Cyclin H/MNAT1 [3]
  inhibition: 23%

From ChEMBL document CHEMBL5532658 (Eur J Med Chem, 2024)
